Measurements: PMC5816626, “A multitarget approach to drug discovery inhibiting Mycobacterium tuberculosis PyrG and PanK” (Scientific Reports, 2018)
Converted amounts (≈) assume the structure as drawn.

Experiments:
Type in all cases: cell-based, Mycobacterium tuberculosis
[1] = tested on: M. tuberculosis 82.21 mutant (ethA Δ1283–4, coaA A620G (Q207R))
[2] = tested on: M. tuberculosis 88.1 mutant (coaA A620G (Q207R))
[3] = tested on: M. tuberculosis 88.2 mutant (coaA A620G (Q207R))
[4] = tested on: M. tuberculosis 88.3, 88.4, 88.5, 88.9, 88.11, 88.12 mutants (coaA A620G (Q207R))
[5] = tested on: M. tuberculosis 81.10 mutant (ethA Δ1109–1137)

Cc1ccc(C(=O)Nc2ccc([N+](=O)[O-])cc2)s1 [compound 7947882, 5-methyl-N-(4-nitrophenyl)thiophene-2-carboxamide]
MIC [1]: >40 µg/mL | MIC [2]: 2.5 µg/mL (≈ 9.53 µM) | MIC [3]: 2.5 µg/mL (≈ 9.53 µM) | MIC [4]: 2.5 µg/mL (≈ 9.53 µM) | MIC [5]: >40 µg/mL

CC1=CC=C(C(=O)Nc2ccc([N+](=O)[O-])cc2)S1(=O)=O [compound 11426026]
MIC [1]: 2.5 µg/mL (≈ 8.5 µM) | MIC [2]: 2.5 µg/mL (≈ 8.5 µM) | MIC [3]: 2.5 µg/mL (≈ 8.5 µM) | MIC [4]: 2.5 µg/mL (≈ 8.5 µM) | MIC [5]: 1 µg/mL (≈ 3.4 µM)

CCc1cc(C(N)=S)ccn1 [Ethionamide, reference compound]
MIC [1]: 10 µg/mL (≈ 60.2 µM) | MIC [2]: 1 µg/mL (≈ 6.02 µM) | MIC [3]: 1 µg/mL (≈ 6.02 µM) | MIC [4]: 1 µg/mL (≈ 6.02 µM) | MIC [5]: 10 µg/mL (≈ 60.2 µM)

O=C(CCc1ccccc1)NC(=S)Nc1ccc(N2CCCCC2)cc1 [compound 7904688, 3-phenyl-N-[(4-piperidin-1-ylphenyl)carbamothioyl]propanamide]
MIC [1]: >40 µg/mL | MIC [2]: 10 µg/mL (≈ 27.2 µM) | MIC [3]: 10 µg/mL (≈ 27.2 µM) | MIC [4]: 10 µg/mL (≈ 27.2 µM) | MIC [5]: >40 µg/mL
